From patent publication US20240398771A1, “TREATMENT OF SCLERODERMA AND RAYNAUD'S SYNDROME” (Aisa Pharma, Inc., priority 2023, published 2024)

How the values were obtained:
Type in all cases: in vivo, human
[1] = test system: participants with SSc-RP; assay: SHAQ Visual Analog Scale - overall disease severity; parameters: Overall Change in Severity, Baseline, Mean / Overall Change in Severity, Baseline, Median / Overall Change in Severity, Change from Baseline, Mean / Overall Change in Severity, Change from Baseline, Median: scale not given here
Method: (§1) Results: Patients in the study were administered the Scleroderma Health Assessment Questionnaire (SHAQ) at the time of study entry and during clinic visits following the treatment period. The study is a two-part, parallel arm design, prospective, double-blind, randomized study conducted in Australia (Flinders Medical Center). 27 patients were randomized into the first phase of the study, following which a DSMB meeting was held, which reviewed data on the primary study endpoint and key Raynaud's secondary endpoints. Data on the SHAQ was not available for the DSMB to review. The mITT population, in which any data was available post treatment was 24 patients was the analysis population for this first part of the study. The second part (i.e., part B) of the study will randomize 36 patients in a double blind, randomized, prospective, placebo controlled, crossover study. In the first part (i.e., Part A) of the study for which data is presented, patients were randomized into 6 groups, cilnidipine at two doses (10 and 20 mg) alone and in combination with tadalafil 5 mg, tadalafil 5 mg alone, and placebo. […] The DSMB recommended that the study proceed into its double blind prospective cross overpowered second phase and compare cilnidipine 20 mg alone to placebo. […] Cilnidipine treatment may reduce patient-reported SSc disease disability compared to placebo • b. Cilnidipine treatment may reduce patient-reported SSc disease alternative disability compared to placebo • c. Cilnidipine treatment may reduce patient-reported SSc disease pain* compared to placebo • d. Cilnidipine treatment may reduce patient-reported SSc disease severity compared to placebo • e. Cilnidipine treatment may reduce patient-reported SSc disease skin ulcer severity rating compared to placebo • f Cilnidipine treatment may reduce patient-reported SSc disease breathing difficulty compared to placebo • g. […] SSc disease pain comprises not only pain from Raynaud's but joint pain, headache, odynophagia, back pain, pain from skin ulceration, and neuropathic pain). Table E includes results of the Scleroderma Health Assessment Questionnaire.

[2] = test system: participants with SSc-RP; assay: Average severity (0-10) of weekly RP attacks, all attacks; details: excluding outliers, ITT Part A
Text: The relevant metrics measured by this tool daily are: • Study medication • SSc-RP symptoms (Reporting an attack including duration of attack) • Severity of the attack considering all symptoms of the attack e.g. tingling, numbness, pain, color changes (VAS 0-10 cm scale) • Participant's location at the time of the attack (inside home/outside home) • Selecting symptoms experienced during the attack (tingling, numbness, pain, color changes, other) • Pain rating during the attack (11-point Likert scale) • The RCS based on how much difficulty participants had with Raynaud's today, how many attacks the participant had, and how long they lasted. Participants will also be asked to consider how much pain, numbness, or other symptoms the Raynaud's caused in fingers (including painful sores), and how much the Raynaud's alone affected the use of hands today (VAS 0-10 cm scale).
The absolute change in average severity of weekly RP attacks (VAS 0-10 cm scale) from baseline to the end of each Dosing Period was and will be a secondary outcome variable. The sponsor-developed participant-informed diary will be used to record data. Average severity of weekly RP attacks is defined as the total severity scores of RP attacks divided by total number of RP attacks within the last 7 days of each dosing period. Total severity scores of RP attacks during the last 7 days of screening period divided by the total number of RP attacks will be used as baseline for the analysis of all periods. The variable will be calculated similar to frequency data as before.

[3] = test system: participants with SSc-RP; assay: SHAQ Visual Analog Scale - Finger Ulcers; parameters: Finger Ulcers, Baseline, Mean / Finger Ulcers, Baseline, Median / Finger Ulcers, Change from Baseline, Mean / Finger Ulcers, Change from Baseline, Median: scale not given here
Method: as §1

[4] = Tadalafil 5 mg, Modified ITT, Part A
[5] = Tadalafil 5 mg, baseline RCS subgroup 2 of 2
[6] = Cilnidipine 10 mg, Modified ITT, Part A
[7] = Cilnidipine 20 mg, Modified ITT, Part A
[8] = Pooled Cilnidipine (10 mg or 20 mg, N = 7), mITT Part A
[9] = Cilnidipine 10 mg, baseline RCS subgroup 1 of 2
[10] = Cilnidipine 20 mg, baseline RCS subgroup 1 of 2
[11] = Pooled Cilnidipine 10 mg and Cilnidipine 10 mg + Tadalafil 5 mg, baseline RCS subgroup 1 of 2
[12] = Pooled Cilnidipine 10 mg and Cilnidipine 10 mg + Tadalafil 5 mg, baseline RCS subgroup 2 of 2
[13] = Pooled Cilnidipine 20 mg and Cilnidipine 20 mg + Tadalafil 5 mg, baseline RCS subgroup 1 of 2
[14] = Pooled Cilnidipine 20 mg and Cilnidipine 20 mg + Tadalafil 5 mg, baseline RCS subgroup 2 of 2
[15] = Pooled Cilnidipine, baseline RCS subgroup 1 of 2

CN1CC(=O)N2[C@H](c3ccc4c(c3)OCO4)c3[nH]c4ccccc4c3C[C@@H]2C1=O [Tadalafil]
Overall Change in Severity, Baseline, Mean [1, 4]: 3.600
Overall Change in Severity, Baseline, Median [1, 4]: 2.550
Overall Change in Severity, Change from Baseline, Mean [1, 4]: −0.850
Overall Change in Severity, Change from Baseline, Median [1, 4]: −0.650
Overall Change in Severity, In Clinic Visit (Day 12), Mean [1, 4]: 2.750
Overall Change in Severity, In Clinic Visit (Day 12), Median [1, 4]: 1.500
Overall Change in Severity, Percent Change from Baseline, Mean [1, 4]: −31.76%
Overall Change in Severity, Percent Change from Baseline, Median [1, 4]: −36.22%
Average Severity of Weekly RP Attacks (All Attacks): Average Severity, Mean [2, 5]: 4.56
Average Severity of Weekly RP Attacks (All Attacks): Average Severity, Median [2, 5]: 4.56
Average Severity of Weekly RP Attacks (All Attacks): Baseline, Mean [2, 5]: 5.75
Average Severity of Weekly RP Attacks (All Attacks): Baseline, Median [2, 5]: 5.75
Finger Ulcers, Baseline, Mean [3, 4]: 2.125
Finger Ulcers, Baseline, Median [3, 4]: 0.050
Finger Ulcers, Change from Baseline, Mean [3, 4]: −0.967
Finger Ulcers, Change from Baseline, Median [3, 4]: −0.100
Finger Ulcers, In Clinic Visit (Day 12), Mean [3, 4]: 1.867
Finger Ulcers, In Clinic Visit (Day 12), Median [3, 4]: 0.000
Finger Ulcers, Percent Change from Baseline, Mean [3, 4]: −66.67%
Finger Ulcers, Percent Change from Baseline, Median [3, 4]: −66.67%

COCCOC(=O)C1=C(C)NC(C)=C(C(=O)OC/C=C/c2ccccc2)C1c1cccc([N+](=O)[O-])c1 (stereo not shown) [Cilnidipine, 1,4-dihydro-2,6-dimethyl,4-(3-nitrophenyl)-3,5-pyridinedicarboxylic acid 2-methoxyethyl (2 E)-3-phenyl-2-propenyl ester]
Overall Change in Severity, Baseline, Median [1, 6]: 1.900
Overall Change in Severity, Change from Baseline, Mean [1, 6]: −0.900
Overall Change in Severity, Change from Baseline, Median [1, 6]: −0.950
Overall Change in Severity, Baseline, Median [1, 7]: 2.900
Overall Change in Severity, Change from Baseline, Median [1, 7]: −1.600
Overall Change in Severity, In Clinic Visit (Day 12), Median [1, 7]: 1.200
Overall Change in Severity, Percent Change from Baseline, Median [1, 7]: −60.00%
patient-reported SSc disease severity compared to placebo ([1]; Example 4, SHAQ, mITT Part A): may reduce
SHAQ patient reported disease severity: Baseline, Mean (SD) [1, 8]: 2.700 (2.3424)
SHAQ patient reported disease severity: Baseline, Median [1, 8]: 2.900
Average Severity of Weekly RP Attacks (All Attacks): Baseline, Mean [2, 9]: 3.03
Average Severity of Weekly RP Attacks (All Attacks): Baseline, Median [2, 9]: 3.03
Average Severity of Weekly RP Attacks (All Attacks): Average Severity, Mean [2, 10]: 2.30
Average Severity of Weekly RP Attacks (All Attacks): Average Severity, Median [2, 10]: 2.30
Average Severity of Weekly RP Attacks (All Attacks): Baseline, Mean [2, 10]: 3.37
Average Severity of Weekly RP Attacks (All Attacks): Baseline, Median [2, 10]: 3.37
Average Severity of Weekly RP Attacks (All Attacks): Average Severity, Mean [2, 11]: 2.97
Average Severity of Weekly RP Attacks (All Attacks): Average Severity, Median [2, 11]: 2.97
Average Severity of Weekly RP Attacks (All Attacks): Baseline, Mean [2, 11]: 4.33
Average Severity of Weekly RP Attacks (All Attacks): Baseline, Median [2, 11]: 4.33
Average Severity of Weekly RP Attacks (All Attacks): Average Severity, Mean [2, 12]: 4.90
Average Severity of Weekly RP Attacks (All Attacks): Average Severity, Median [2, 12]: 4.90
Average Severity of Weekly RP Attacks (All Attacks): Baseline, Mean [2, 12]: 6.22
Average Severity of Weekly RP Attacks (All Attacks): Baseline, Median [2, 12]: 6.22
Average Severity of Weekly RP Attacks (All Attacks): Average Severity, Mean [2, 13]: 2.78
Average Severity of Weekly RP Attacks (All Attacks): Average Severity, Median [2, 13]: 2.40
Average Severity of Weekly RP Attacks (All Attacks): Baseline, Median [2, 13]: 4.12
Average Severity of Weekly RP Attacks (All Attacks): Baseline, Mean [2, 14]: 6.59
Average Severity of Weekly RP Attacks (All Attacks): Baseline, Median [2, 14]: 6.59
Average Severity of Weekly RP Attacks (All Attacks): Average Severity, Median [2, 15]: 2.40
Average Severity of Weekly RP Attacks (All Attacks): Baseline, Mean [2, 15]: 3.26
Average Severity of Weekly RP Attacks (All Attacks): Baseline, Median [2, 15]: 3.03
Finger Ulcers, Baseline, Mean [3, 6]: 0.700
Finger Ulcers, Baseline, Median [3, 6]: 0.500
Finger Ulcers, Change from Baseline, Median [3, 6]: −0.350
Finger Ulcers, In Clinic Visit (Day 12), Median [3, 6]: 0.000
Finger Ulcers, Baseline, Mean [3, 7]: 1.800
Finger Ulcers, Baseline, Median [3, 7]: 0.300
Finger Ulcers, Change from Baseline, Median [3, 7]: 0.000
Finger Ulcers, In Clinic Visit (Day 12), Median [3, 7]: 0.700
patient-reported SSc disease skin ulcer severity rating compared to placebo ([3]; Example 4, SHAQ, mITT Part A): may reduce
